# From patent publication US20120076776A1, “METHOD FOR TREATING INFLAMATION BY LYMPHOCYTE DEPLETION OR SEQUESTERING” (priority 2010, published 2012)
# Key:
# peripheral neutrophils = assay: Peripheral neutrophil counts during hemorrhage and reperfusion; assay type: in vivo, Yorkshire (Sus scrofa domestica) swine; details: FTY720 0.3 mg/kg; reperfusion period
# Protocol: All functional laboratory assays were performed at 37° C., consistent with recorded normothermic animal temperatures (37.5±0.9° C.). Blood samples were collected at 0, 15, 30, 60, 90, and 120 minutes during the hemorrhage period and at 18, 24, 36, 48, and 72 hours during the survival period. Complete blood count with differentiation was performed with a cell counter (NDvia120 Hematology System, Siemens, Deerfield, Ill.).
# Blood samples were collected at 0, 15, 30, 60, 90, and 120 minutes during the hemorrhage period and at 18, 24, 36, 48, and 72 hours during the survival period. Complete blood counts with differentiation were obtained using a cell counter (NDvia120 Hematology System, Siemens, Deerfield, Ill.).
# IRI = details: various animal models; cited from earlier work
# [1] = test system: immune-related genes in liver tissue; assay: QRT-PCR gene transcript expression in liver tissue at necropsy; details: FTY720 n=7 vs control n=5
# [2] = test system: lung tissue neutrophils (MPO+); assay: MPO immunohistochemistry of lung tissue at necropsy; assay type: in vivo, Yorkshire (Sus scrofa domestica) swine; details: FTY720 0.3 mg/kg
# Protocol: Immunohistochemical detection of MPO was performed on sections of formalin fixed, paraffin embedded blocks of swine lung. Antigen retrieval was performed using Proteinase K (DAKO, Carpenteria Calif.) for 30 minutes. Polyclonal rabbit, anti-human MPO (DAKO, Carpenteria Calif.) was used at a ready to use dilution and incubated at room temperature for 30 minutes. Envision, anti-rabbit (DAKO, Carpenteria Calif.) was applied as a secondary antibody for 30 minutes at room temperature. The chromogen applied was 3,3′ Diaminobenzidine (DAKO, Carpenteria, Calif.) for 10 minutes. The sections were counterstained with Hematoxylin (DAKO, Carpenteria, Calif.). External negative control was processed identically as with MPO but the primary antibody was substituted with normal rabbit serum. […] Cells with appropriate nuclear morphology and the presence of light to intensely reactive granules were counted; 5 random 40× fields were assessed.
# Immunohistochemical detection of MPO was performed on sections of formalin fixed, paraffin embedded blocks of lung tissue. […] Polyclonal rabbit, anti-human MPO (DAKO, Carpenteria Calif.) was used at a ready to use dilution and incubated at room temperature for 30 minutes. […] Cells with appropriate nuclear morphology and the presence of light to intensely reactive granules were counted; 5 random 40× fields were assessed.
# [3] = test system: central lymphocytes (CD3+); assay: CD3 immunohistochemistry of mesenteric lymph node and spleen at necropsy (ACIS); assay type: in vivo, Yorkshire (Sus scrofa domestica) swine; details: FTY720 0.3 mg/kg; both mesenteric lymph node and spleen at necropsy
# Protocol: Immunohistochemical detection of CD3 was performed on sections of formalin fixed, paraffin embedded blocks of swine lymph node and spleen. Antigen retrieval was performed using Trilogy (Cell Marque, Rocklin, Calif.) for 30 minutes. Rat, anti-human CD3, monoclonal antibody (AbD Serotec, Raleigh, N.C.) was used at a dilution of 1:50 and incubated overnight at 4 C. Biotinylated goat anti-rat IgG specific polyclonal antibody (BD Biosciences, San Jose, Calif.) was applied as a secondary antibody at a 1:100 dilution for 30 minutes at room temperature. The chromogen applied was 3, 3′ Diaminobenzidine (DAKO, Carpenteria, Calif.) for 10 minutes. The sections were counterstained with Hematoxylin (DAKO, Carpenteria, Calif.). External negative controls were processed identically as CD3 but the primary antibody was substituted with normal rat serum. […] An Automated Cellular Imaging System (ACIS) was used to quantify the CD3 immunohistochemistry staining. By using the ACIS system, CD3 immunohistochemical staining could be specifically quantitated by determining how much brown (positive CD3 immunohistochemical reaction) was in the image compared to the amount of blue (hematoxylin nuclear counterstain).
# Tissue slides were deparaffinized using xylene followed by graded baths of ethanol. […] An Automated Cellular Imaging System (ACIS) was used to quantify the CD3 immunohistochemistry staining. […]
# [4] = test system: experimental hemorrhagic shock induced by porcine liver injury; assay: Liver injury hemorrhagic shock model: survival, blood loss, hemodynamics; assay type: in vivo, Yorkshire (Sus scrofa domestica) swine; details: FTY720 0.3 mg/kg 15 min after liver injury
# Protocol: Male and female 3-12 month Yorkshire (Sus scrofa domestica) swine weighing 25-35 kg were acquired from ABI farms (Donsboro, Pa.). Feed was withheld 12 hours before surgery. Prior to surgery, animals were sedated and anesthesia induced with intramuscular ketamine hydrochloride (12-20 mg/kg of weight) and xylazine (2.2 mg/kg of weight) as well as atropine sulfate (0.05 mg/kg of weight) to decrease tracheal secretions. Mask ventilation with Isoflurane (5.0%) was used to facilitate endotracheal intubation. Pigs were ventilated (Ohmeda 7800 series ventilator, Datex, Madison, Wis.) at 12-15 breaths/min and tidal volume 10 mL/kg. Anesthesia was maintained with Isoflurane (1.5-2.5%) in 21-25% O2.
# Following adequate anesthesia the right external and internal jugular veins and carotid artery were isolated. A 9Fr dual-lumen, tunneled Hickman catheter was placed in the external jugular vein for drug infusion and blood collection during the survival period. […] Rectal temperature was monitored continuously. […]
# All animal groups underwent a standardized liver injury and resuscitation protocol. […] Bleeding was spontaneous and removed continually via suction and quantified by weight. […]
# After a total of 2 hours, the pre-hospital phase was completed and hospital arrival was simulated. […] The abdomen was reopened, residual blood suctioned, sponges collected, and blood loss quantified by weight. […]
# renal transplant IRI = details: rat, in vivo; cited from earlier work
smiles,measurement,setting,value
CCCCCCCCc1ccc(CCC(N)(CO)CO)cc1 [FTY720],peripheral neutrophil response vs control,peripheral neutrophils,attenuated
same,effect on IRI,IRI,ameliorate IRI
same,BCL-2 transcript expression in liver vs control,[1],up-regulated
same,FAS transcript expression in liver vs control,[1],down regulated
same,HSP70 transcript expression in liver vs control,[1],down-regulated
same,INOS transcript expression in liver vs control,[1],down-regulated
same,NFκB transcript expression in liver vs control,[1],down-regulated
same,VCAM transcript expression in liver vs control,[1],down-regulated
same,lung tissue neutrophils vs control,[2],significantly decreased
same,central lymphocyte sequestration (CD3 staining) vs control,[3],significant central lymphocyte sequestration
same,reperfusion period survival vs control,[4],statistically improved
same,overall survival vs control,[4]; 72 hours,improved compared to control although not statistically significant
same,adhesion molecules expression,renal transplant IRI,no change
same,intragraft neutrophil infiltration,renal transplant IRI,reduced
same,renal function,renal transplant IRI,improved renal function
